In patent US10301295B2, “Herbicidal compounds” (Syngenta Participations AG, priority 2014, dated 2019):
Read-outs that look alike come from different tables or passages of the source.

Tests used:
Type in all cases: in vivo
[1] = test system: Alopecurus myosuroides (ALOMY); test: Glasshouse assay for herbicidal activity, pre-/post-emergence (percentage phytotoxicity); settings: Alopecurus myosuroides, Rate 250 g/ha, 100%=total damage, 0%=no damage
Procedure, shortened: (§1)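 Percentage phytotoxicity was assessed visually, 100% meaning total plant damage and 0% none, at 20 days after application for pre-emergence and 15 days for post-emergence. Plants were potted in standard soil and treated after 1 day or about 12 days of growth.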

Avena fatua (AVEFA) = test: as above; settings: Avena fatua, Rate 250 g/ha, 100%=total damage, 0%=no damage
Procedure, shortened: as §1

[2] = test system: Echinochloa crus-galli (ECHCG); test: as above; settings: Echinochloa crus-galli, Rate 250 g/ha, 100%=total damage, 0%=no damage
Procedure, shortened: as §1

Lolium perenne (LOLPE) = test: as above; settings: Lolium perenne, Rate 250 g/ha, 100%=total damage, 0%=no damage
Procedure, shortened: as §1

wheat = test: Post-emergence herbicidal activity against cereal crops (wheat) +/- safener, crop selectivity; settings: 100%=total damage to plant, 0%=no damage; for Post-emergence herbicidal activity against wheat (percentage phytotoxicity), +CQC: 250 g/ha, plus safener cloquintocet-mexyl (CQC) applied at 50 g/ha; for percent phytotoxicity (crop damage) to wheat at 250 g/ha: Triticum aestivum, 360 h, without safener, read-out: Post-emergence herbicidal activity against wheat (percentage phytotoxicity), Wheat - CQC
Protocol: Seeds of a variety of monocotyledonous and dicotyledonous test plants are sown in standard soil in pots. The plants are cultivated for one day (for pre-emergence) or for about 12 days (for post-emergence) under controlled conditions in a glasshouse (warm climate species at 24/18° C., cool climate species at 20/16° C., both at day/night; 16 hours light; 65% humidity). The test plants are then grown on, in a glasshouse (greenhouse) under controlled conditions (warm climate species at 24/18° C., cool climate species at 20/16° C., both at day/night; 16 hours light; 65% humidity) and are watered twice daily. 15 days after application of the test herbicide (15DAA) (for post-emergence), and 20 days after application of the test herbicide (20DAA) (for pre-emergence), the test plants are evaluated visually, and an assessed percentage phytotoxicity score is given for each herbicidal application on each plant species (with 100%=total damage to plant; 0%=no damage to plant).

[3] = 360 h, post-emergence, visual assessment 15 DAA, read-out: Post-emergence herbicidal activity (percentage phytotoxicity), ALOMY POST
[4] = 480 h, pre-emergence, visual assessment 20 DAA, read-out: Pre-emergence herbicidal activity (percentage phytotoxicity), ALOMY PRE
[5] = post-emergence, 360 h, post-emergence, visual assessment 15 DAA, read-out: Post-emergence herbicidal activity (percentage phytotoxicity), AVEFA POST
[6] = pre-emergence, 480 h, pre-emergence, visual assessment 20 DAA, read-out: Pre-emergence herbicidal activity (percentage phytotoxicity), AVEFA PRE
[7] = post-emergence, 360 h, post-emergence, visual assessment 15 DAA, read-out: Post-emergence herbicidal activity (percentage phytotoxicity), ECHCG POST
[8] = pre-emergence, 480 h, pre-emergence, visual assessment 20 DAA, read-out: Pre-emergence herbicidal activity (percentage phytotoxicity), ECHCG PRE
[9] = post-emergence, 360 h, post-emergence, visual assessment 15 DAA, read-out: Post-emergence herbicidal activity (percentage phytotoxicity), LOLPE POST
[10] = pre-emergence, 480 h, pre-emergence, visual assessment 20 DAA, read-out: Pre-emergence herbicidal activity (percentage phytotoxicity), LOLPE PRE

Structure (SMILES) | pest or weed control at 250 g/ha [1, 3] [%] | pest or weed control at 250 g/ha [1, 4] [%] | pest or weed control at 250 g/ha (Avena fatua (AVEFA); [5]) [%] | pest or weed control at 250 g/ha (Avena fatua (AVEFA); [6]) [%] | pest or weed control at 250 g/ha [2, 7] [%] | pest or weed control at 250 g/ha [2, 8] [%] | pest or weed control at 250 g/ha (Lolium perenne (LOLPE); [9]) [%] | pest or weed control at 250 g/ha (Lolium perenne (LOLPE); [10]) [%] | Post-emergence herbicidal activity against wheat (percentage phytotoxicity), +CQC (wheat) [%] | percent phytotoxicity (crop damage) to wheat at 250 g/ha (wheat) [%]
Cc1cc(-n2cc(Cl)cn2)cc(C)c1C1C(=O)CC(CCNC(=O)Nc2ccccn2)C1=O.Cl (stereo not drawn) [Compound A13] | 90 | 70 | 100 | 40 | 100 | 90 | 70 | 50 | 40 | 70
Cc1cc(C)c(C2C(=O)CC(CCNC(=O)N(C)C(C)(C)C)C2=O)c(C)c1 (stereo not drawn) [Compound A14] | 80 | 90 | 90 | 90 | 100 | 100 | 100 | 100 | 30 | 60
Cc1cc(C)c(C2C(=O)CC(CCNC(=O)Nc3cc(C(C)(C)C)on3)C2=O)c(C)c1 (stereo not drawn) [Compound A15] | 60 | 70 | 50 | 50 | 30 | 70 | 70 | 70 | 30 | 40
Cc1cc(C)c(C2C(=O)CC(CCNC(=O)Nc3cc(C(C)(C)F)ncn3)C2=O)c(C)c1 (stereo not drawn) [Compound A16] | 90 | 80 | 100 | 70 | 80 | 100 | 90 | 90 | 50 | 80
CONC(=O)NCCC1CC(=O)C(c2c(C)cc(C)cc2C)C1=O (stereo not drawn) [Compound A18] | 80 | 60 | 80 | 50 | 90 | 60 | 80 | 70 | 0 | 60
Cc1cc(-c2ncc(Cl)cc2F)cc(C)c1C1C(=O)CC(CCNC(=O)Nc2ccccn2)C1=O (stereo not drawn) [Compound A19] | 90 | 70 | 100 | 90 | 100 | 80 | 100 | 80 | 80 | 80
Cc1cc(-n2cc(Cl)cn2)cc(C)c1C1C(=O)CC(CCNC(=O)N(C)c2ccccn2)C1=O (stereo not drawn) [Compound A20] | 80 | 20 | 100 | 80 | 100 | 100 | 90 | 80 | 0 | 80
Cc1cc(-n2cc(Cl)cn2)cc(C)c1C1C(=O)CC(CCNC(=O)NC(C)(C)C)C1=O (stereo not drawn) [Compound A21] | 90 | 90 | 100 | 90 | 100 | 100 | 90 | 80 | 70 | 90
CC#Cc1cc(C)c(C2C(=O)CC(CCNC(=O)N(C)c3ccccn3)C2=O)c(C)c1.Cl (stereo not drawn) [Compound A22] | 80 | 70 | 100 | 100 | 100 | 100 | 90 | 100 | 30 | 80
CC#Cc1cc(C)c(C2C(=O)CC(CCNC(=O)NC(C)(C)C)C2=O)c(C)c1 (stereo not drawn) [Compound A23] | 90 | 100 | 100 | 100 | 100 | 100 | 90 | 100 | 80 | 90
Cc1cc(-c2ncccc2F)cc(C)c1C1C(=O)CC(CCNC(=O)Nc2ccccn2)C1=O.Cl (stereo not drawn) [Compound A24] | 60 | 10 | 100 | 70 | 100 | 90 | 90 | 80 | 70 | 80
Cc1cc(-n2cc(Cl)cn2)cc(C)c1C1C(=O)CC(CCNC(=O)NOC(C)(C)C)C1=O (stereo not drawn) [Compound A25] | 70 | 30 | 80 | 0 | 90 | 50 | 20 | 30 | 0 | 60
Cc1cc(C)c(C2C(=O)CC(CCNC(=O)NO)C2=O)c(C)c1 (stereo not drawn) [Compound A26] | 10 | 0 | 0 | 0 | 10 | 0 | 40 | 0 | 10 | 0
Cc1cc(-c2ncc(Cl)cc2F)cc(C)c1C1C(=O)CC(CCNC(=O)N(C)c2ccccn2)C1=O.Cl (stereo not drawn) [Compound A27] | 90 | 60 | 90 | 90 | 100 | 90 | 100 | 90 | 70 | 80
Cc1cc(-n2cc(Cl)cn2)cc(C)c1C1C(=O)CC(CCNC(=O)Nc2ccc(F)cn2)C1=O (stereo not drawn) [Compound A28] | 90 | 70 | 100 | 70 | 90 | 90 | 80 | 70 | 20 | 80
